One experiment addresses PD-L1/CHO-K1 cells (Homo sapiens (Human), UniProt Q9NZQ7). The experiment is described as follows: PD-L1 internalization (FACS, PD-L1/CHO-K1 cells). It is filed as cell-based. Conditions: % activation of PD-L1 internalization = 1 − PD-L1 signal; 17 hours incubation. As to the method:
Day 1. Seeding cells: Digest the PD-L1/CHO-K1 cells by trypsin in the flask, then counting the cell number and diluted to 1×10^5 cells/ml. Seeding cells to 6 well plate (Corning, #3516), 2 mL/well. The plates were incubated at 37° C., […] incubator for 24 hours.
Day 2. Preparing compounds and treated cells: Dilute GLC01-258 from 15 mM to 0.5 mM by using DMSO, and 15 mM compound were serial diluted from 15 mM˜15 nM by DMSO, Then 500 times dilute the compounds by using assay buffer. Prepare 0.2% DMSO in assay buffer used for Vehicle control and low control. Take out the plates, aspirated the medium and thrown away. Adding 2 mL of the diluted compounds, vehicle control and low control to corresponding wells. Then incubated the plates for 17 hours at 37° C., 5% CO2 incubator.
Day 3. Preparing samples for FACS: After 17 hours incubation, discarded medium and washed by the PBS. Cells in each well were Digested by trypsin. Centrifuge and discard the supernatant, then wash the cells by DPBS (Ca^2+, Mg^2+ free) for twice. 10 fold dilute the antibody (PE-conjugated mouse anti-human CD274) by DPBS, then adding the staining solution to compounds treated samples and vehicle control sample. The low control only add DPBS without antibody. Incubate the plates at room temperature for 20 minutes and protect from light. After 20 minutes, wash the samples by DPBS for twice. Then centrifuge and discard the supernatant. Resuspend cells by 300 uL DPBS and transfer the samples to 5 mL Polystryrene Round-Bottom Tube (Falcon, #352054), then tested by BD FACSCanto. […].
Set the PD-L1 signal of vehicle control as 100%, PD-L1 signal of Low control as 0%. Then calculate the compound treated samples' PD-L1 signal
0% PD-L1 signal: Low control which stained without anti-CD274
100% PD-L1 Signal: vehicle control which stained with anti-CD274
The % activation of PD-L1 Internalization=1−PD-L1 signal of compound.

In the next experiment the target is PD-1/PD-L1 (Homo sapiens (Human), UniProt Q9NZQ7). Kind of experiment: PD-1/PD-L1 Homogeneous Time-Resolved Fluorescence (HTRF) binding assay. The note with it: 3 nM PD1, 10 nM PD-L1, 25° C., PBS pH 7.4. As to the method:
PD-1/PD-L1 Homogeneous Time-Resolved Fluorescence (HTRF) Binding Assay
The assays were conducted in a standard black 384-well polystyrene plate with a final volume of 20 μL. Inhibitors were first serially diluted in DMSO and then added to the plate wells before the addition of other reaction components. The final concentration of DMSO in the assay was 1%. The assays were carried out at 25° C. in the PBS buffer (pH 7.4) with 0.05% Tween-20 and 0.1% BSA. Recombinant human PD-L1 protein (19-238) with a Histag at the C-terminus was purchased from AcroBiosystems (PD1-H5229). Recombinant human PD-1 protein (25-167) with Fe tag at the C-terminus was also purchased from AcroBiosystems (PD1-H5257). PD-L1 and PD-1 proteins were diluted in the assay buffer and 10 μL was added to the plate well. Plates were centrifuged and proteins were preincubated with inhibitors for 40 minutes. The incubation was followed by the addition of 10 μL of HTRF detection buffer supplemented with Europium cryptate-labeled anti-human IgG (PerkinElmer-AD0212) specific for Fe and anti-His antibody conjugated to SureLight®-Allophycocyanin (APC, PerkinElmer-AD0059H). After centrifugation, the plate was incubated at 25° C. for 60 min. before reading on a PHERAstar FS plate reader (665 nm/620 nm ratio). Final concentrations in the assay were—3 nM PD1, 10 nM PD-L1, 1 nM europium anti-human IgG and 20 nM anti-His-Allophycocyanin. IC50 determination was performed by fitting the curve of percent control activity versus the log of the inhibitor concentration.

Experiment [1] deals with extracellular domains of PD-L1 (Homo sapiens (Human), UniProt Q9NZQ7). Kind of experiment: PD-L1 dimerization (biochemical protein-protein interaction assay). Conditions: PDL1-Eu and PDL1-A2, 25° C., 120 min. As to the method:
Compounds were tested in biochemical protein-protein interaction assays to determine if they can specifically dimerize the extracellular domains of PD-L1. • (1) Dilute cpd 1:3 in succession in DMSO for each column for 10±0 pts (refer to dilution plate map) • (2) Transfer 0.2 μL cpds solution in each row to 384 assay plate using Echo, each column containing 2 replicates (refer to assay plate map). • (3) Add 20 μL prepared mixture include PDL1-Eu and PDL1-A2 solution to assay plate, centrifuge at 1000 rpm for 1 min. • (4) Incubate at 25° C. for 120 min. • (5) Read fluorescence signal on Envision 2104 plate reader. • (6) Read the Ratio (665 nm/615 nm) signal on Envision. • (7) Analyze the raw data using the equation (V. Data analysis)

Chain of PD-1/PD-L1 (Q9NZQ7 19-238): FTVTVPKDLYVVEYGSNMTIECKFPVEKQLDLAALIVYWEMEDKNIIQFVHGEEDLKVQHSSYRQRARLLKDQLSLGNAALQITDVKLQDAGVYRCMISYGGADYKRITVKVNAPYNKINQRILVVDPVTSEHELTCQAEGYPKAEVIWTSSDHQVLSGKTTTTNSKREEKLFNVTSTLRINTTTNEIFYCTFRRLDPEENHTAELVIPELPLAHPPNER
Chain of extracellular domains of PD-L1 (Q9NZQ7 19-238): as above
Chain of PD-L1/CHO-K1 cells (Q9NZQ7 19-290): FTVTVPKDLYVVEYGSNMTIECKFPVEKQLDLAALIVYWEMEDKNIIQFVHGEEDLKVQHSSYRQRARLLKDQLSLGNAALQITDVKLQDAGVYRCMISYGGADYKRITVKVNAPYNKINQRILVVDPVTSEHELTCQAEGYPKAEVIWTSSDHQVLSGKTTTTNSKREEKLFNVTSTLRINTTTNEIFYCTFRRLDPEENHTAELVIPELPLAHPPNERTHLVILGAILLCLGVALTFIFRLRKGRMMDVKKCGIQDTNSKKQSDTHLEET

As to `O=C(O)C[C@H](CO)NCCN1C(=O)COc2cc(-c3cccc(-c4cccc(-c5ccc6c(c5)OCC(=O)N6CCN[C@@H](CO)CC(=O)O)c4Cl)c3Cl)ccc21` [Compound 528], the Internalization at PD-L1/CHO-K1 cells amounted to 13.30%. Further, on PD-1/PD-L1, the half-maximal inhibitory concentration (IC50) was determined as 5.04 nM. The same compound displayed an EC50 in experiment [1] of 175 nM.

At PD-L1/CHO-K1 cells, `O=C(O)[C@@H]1C[C@@H](O)CN1CCN1C(=O)COc2cc(-c3cccc(-c4cccc(-c5ccc6c(c5)OCC(=O)N6CCN5C[C@H](O)C[C@H]5C(=O)O)c4Cl)c3Cl)ccc21` [Compound 454] gave an Internalization of 5.20%. The same compound returned a 50% inhibitory concentration (IC50) on PD-1/PD-L1 of 1.42 nM. The compound further displayed an EC50 in experiment [1] of 326 nM.

On PD-L1/CHO-K1 cells, `C[C@@H](CN1C(=O)COc2cc(-c3cccc(-c4cccc(-c5ccc6c(c5)OCC(=O)N6C[C@H](C)N[C@@H](CO)C(=O)O)c4Cl)c3Cl)ccc21)N[C@@H](CO)C(=O)O` [Compound 550] returned an Internalization of 3.00%. For the same compound, the IC50 on PD-1/PD-L1 was 3.96 nM. The compound also came in with an EC50 in experiment [1] of 225 nM.

The compound `Cc1c(-c2ccc3c(c2)OCC(=O)N3CCN[C@@H](CO)C(=O)O)cccc1-c1cccc(-c2ccc3c(c2)OCC(=O)N3CCN[C@@H](CO)C(=O)O)c1C` [Compound 585] yielded an Internalization at PD-L1/CHO-K1 cells of 39.00%. Besides, the IC50 on PD-1/PD-L1 was found to be 10.9 nM. The response in experiment [1] was half-maximal at 130 nM (EC50).

The compound `O=C1COc2cc(-c3cccc(-c4cccc(-c5ccc6c(c5)OCC(=O)N6C[C@@H]5CCNC5)c4Cl)c3Cl)ccc2N1C[C@@H]1CCNC1` [Compound 503] yielded an Internalization on PD-L1/CHO-K1 cells of 3.50%. On PD-1/PD-L1, this compound gave an IC50 of 4.19 nM.

`O=C(O)[C@@H](CO)NCCN1C(=O)COc2cc(-c3cccc(-c4cccc(-c5ccc6c(c5)OCC(=O)N6CCN[C@H](CO)C(=O)O)c4Cl)c3Cl)ccc21` [Compound 483] yielded an Internalization at PD-L1/CHO-K1 cells of 19.80%. For the same compound, the IC50 at PD-1/PD-L1 is 6.31 nM.

In the case of `C[C@H](NCCN1C(=O)COc2cc(-c3cccc(-c4cccc(-c5ccc6c(c5)OCC(=O)N6CCN[C@@H](C)C(=O)O)c4Cl)c3Cl)ccc21)C(=O)O` [Compound 536], the Internalization on PD-L1/CHO-K1 cells came to 7.90%. At PD-1/PD-L1, this compound came in with an IC50 of 4.31 nM.

In the case of `O=C(O)CCNCCCN1C(=O)COc2cc(-c3cccc(-c4cccc(-c5ccc6c(c5)OCC(=O)N6CCCNCCC(=O)O)c4Cl)c3Cl)ccc21` [Compound 480], the Internalization on PD-L1/CHO-K1 cells is reported as 5.70%. The IC50 on PD-1/PD-L1 was found to be 5.48 nM.

Consider `O=C1CC[C@@H](CN2C(=O)COc3cc(-c4cccc(-c5cccc(-c6ccc7c(c6)OCC(=O)N7C[C@@H]6CCC(=O)N6)c5Cl)c4Cl)ccc32)N1` [Compound 338], for which the Internalization at PD-L1/CHO-K1 cells is listed as 6.80%. Moreover, the IC50 on PD-1/PD-L1 came to 1.46 nM.

Compound `O=C1COc2cc(-c3cccc(-c4cccc(-c5ccc6c(c5)OCC(=O)N6CCN5CC[C@H](O)C5)c4Cl)c3Cl)ccc2N1CCN1CC[C@H](O)C1` [Compound 476] had an Internalization on PD-L1/CHO-K1 cells of 6.10%. The compound also returned an IC50 on PD-1/PD-L1 of 5.22 nM.

`O=C(O)[C@H](CO)NCCN1C(=O)COc2cc(-c3cccc(-c4cccc(-c5cc(F)c6c(c5)OCC(=O)N6CCN[C@@H](CO)C(=O)O)c4Cl)c3Cl)cc(F)c21` [Compound 561]: the Internalization on PD-L1/CHO-K1 cells worked out at 5.30%. The compound also had an IC50 at PD-1/PD-L1 of 8.95 nM.

The compound `O=C(O)C1CCN(CCN2C(=O)COc3cc(-c4cccc(-c5cccc(-c6ccc7c(c6)OCC(=O)N7CCN6CC[C@H](O)C6)c5Cl)c4Cl)ccc32)C1` (stereo partly drawn) [Compound 481, 1-(2-(7-(2,2′-dichloro-3′-(4-(2-((S)-3-hydroxypyrrolidin-1-yl)ethyl)-3-oxo-3,4-dihydro-2H-benzo[b][1,4]oxazin-7-yl)-[1,1′-biphenyl]-3-yl)-3-oxo-2,3-dihydro-4H-benzo[b][1,4]oxazin-4-yl)ethyl)pyrrolidine-3-carboxylic acid] registered an Internalization on PD-L1/CHO-K1 cells of 8.70%. In addition, on PD-1/PD-L1, the IC50 amounted to 4.69 nM.

For `O=C(O)[C@H](CO)NCCN1C(=O)COc2c1ccc(-c1cccc(-c3cccc(-c4ccc5c(c4F)OCC(=O)N5CCN[C@@H](CO)C(=O)O)c3Cl)c1Cl)c2F` [Compound 557], the Internalization at PD-L1/CHO-K1 cells turned out to be 20.30%. On PD-1/PD-L1, this compound showed a 50% inhibitory concentration (IC50) of 5.33 nM.

`CN1CC(=O)N(C[C@@H]2CCC(=O)N2)c2ccc(-c3cccc(-c4cccc(-c5ccc6c(c5)N(C)CC(=O)N6C[C@@H]5CCC(=O)N5)c4Cl)c3Cl)cc21` [Compound 402] came in with an Internalization on PD-L1/CHO-K1 cells of 2.40%. This compound gave a half-maximal inhibitory concentration (IC50) at PD-1/PD-L1 of 1.98 nM.

`O=C1COc2cc(-c3cccc(-c4cccc(-c5ccc6c(c5)OCC(=O)N6CCNCCO)c4Cl)c3Cl)ccc2N1CCNCCO` [Compound 445] gave an Internalization on PD-L1/CHO-K1 cells of 20.50%. For the same compound, the IC50 at PD-1/PD-L1 was 5.01 nM.

In the case of `O=C(O)[C@H](CCO)NCCN1C(=O)COc2cc(-c3cccc(-c4cccc(-c5ccc6c(c5)OCC(=O)N6CCN[C@@H](CCO)C(=O)O)c4Cl)c3Cl)ccc21` [Compound 560], the Internalization at PD-L1/CHO-K1 cells is on record as 3.10%. This compound also displayed a concentration for half-maximal inhibition (IC50) on PD-1/PD-L1 of 7.78 nM.

Compound `O=C1COc2cc(-c3cccc(-c4cccc(-c5ccc6c(c5)OCC(=O)N6C[C@@H]5CC6(CC6)CN5)c4Cl)c3Cl)ccc2N1C[C@@H]1CC2(CC2)CN1` [Compound 540] returned an Internalization at PD-L1/CHO-K1 cells of 10.60%. This compound gave an IC50 on PD-1/PD-L1 of 10.5 nM.

Take `CN(CCN1C(=O)COc2cc(-c3cccc(-c4cccc(-c5ccc6c(c5)OCC(=O)N6CCN(C)C[C@@H]5CCC(=O)N5)c4Cl)c3Cl)ccc21)C[C@@H]1CCC(=O)N1` [Compound 460]: the Internalization at PD-L1/CHO-K1 cells is 1.90%. This compound also yielded an IC50 at PD-1/PD-L1 of 9.9 nM.

Compound `Cl.O=C1CC[C@@H](CN2C(=O)COc3cc(-c4cccc(-c5cccc(-c6ccc7c(c6)OCC(=O)N7C[C@@H]6CCCN6)c5Cl)c4Cl)ccc32)N1` [Compound 517] gave an Internalization on PD-L1/CHO-K1 cells of 22.80%. In addition, on PD-1/PD-L1, the IC50 worked out at 7.46 nM.

In the case of `O=C1CC[C@@H](CN2C(=O)COc3c2ccc(-c2cccc(-c4cccc(-c5ccc6c(c5F)OCC(=O)N6C[C@@H]5CCC(=O)N5)c4Cl)c2Cl)c3F)N1` [Compound 395], the Internalization at PD-L1/CHO-K1 cells is listed as 2.50%. This compound also showed an IC50 at PD-1/PD-L1 of 6.26 nM.

`O=C1COc2cc(-c3cccc(-c4cccc(-c5ccc6c(c5)OCC(=O)N6C[C@H]5NC6CCC5C6)c4Cl)c3Cl)ccc2N1C[C@H]1NC2CCC1C2` [Compound 539] gave an Internalization at PD-L1/CHO-K1 cells of 11.60%. Further, the IC50 at PD-1/PD-L1 was found to be 7.73 nM.

Regarding `NCCN1C(=O)COc2cc(-c3cccc(-c4cccc(-c5ccc6c(c5)OCC(=O)N6CCN)c4Cl)c3Cl)ccc21` [Compound 538], the Internalization on PD-L1/CHO-K1 cells was determined as 3.60%. At PD-1/PD-L1, the IC50 was found to be 8.18 nM.

The compound `O=C(O)[C@@H](CCO)NCCN1C(=O)COc2cc(-c3cccc(-c4cccc(-c5ccc6c(c5)OCC(=O)N6CCN[C@H](CCO)C(=O)O)c4Cl)c3Cl)ccc21` [Compound 552] gave an Internalization at PD-L1/CHO-K1 cells of 4.90%. The compound further displayed an IC50 at PD-1/PD-L1 of 7.25 nM.

As for `O=C(O)CCNCCN1C(=O)COc2cc(-c3cccc(-c4cccc(-c5ccc6c(c5)OCC(=O)N6CCNCCC(=O)O)c4Cl)c3Cl)ccc21` [Compound 468], the Internalization at PD-L1/CHO-K1 cells was determined as 20.90%. At PD-1/PD-L1, this compound registered an IC50 of 4.9 nM.

`C[C@H](O)[C@@H](NCCN1C(=O)COc2cc(-c3cccc(-c4cccc(-c5ccc6c(c5)OCC(=O)N6CCN[C@@H](C(=O)O)[C@H](C)O)c4Cl)c3Cl)ccc21)C(=O)O` [Compound 551]: the Internalization at PD-L1/CHO-K1 cells worked out at 3.10%. Moreover, on PD-1/PD-L1, the IC50 worked out at 2.64 nM.
